According to patent US20090257975A1, “Solid and Semi-Solid Polymeric Ionic Conjugates” (Pfizer Inc, priority 2002, published 2009):
In brackets after ≈: the same amount, converted by molar mass. Where a name gives a salt, the structure may show the parent alone.

Assay: Solubility determination of ziprasidone in pH 7.4 PBS (shaken vials, HPLC)
Assay type: physicochemical
Settings: concentration of ziprasidone in solution
Protocol: The following samples were evaluated for solubility: • 1. Ziprasidone-polymer ionic conjugate FIVE (40% ziprasidone, 60% polymer composed of Lactide/Glycolide/Malic acid at molar ratios of 4:1:0.65M) • 2. Ziprasidone-polymer ionic conjugate in gel former (Solution of Conjugate FIVE in a typical gel former, The conjugate was dissolved in a mixture (1:1 by weight) with a mixture of two gel formers made individually of PEG-400 grafted with Trimethylene carbonate/Caprolactone/Glycolide and PEG-400 grafted with Lactide/Glycolide • 3. Ziprasidone mesylate salt • 4. Ziprasidone free base
Excess of each of the above sample were placed in a screw-cap vial with 2 ml of pH 7.4, PBS (Dulbecco's Phosphate-Buffered Saline) solution, and the vials were shaken continuously for 7 days. Ziprasidone free base and its mesylate salt were used as controls. The concentration of ziprasidone in solution was determined at 15 minutes, 6 hours, 24 hours, and 7 days. The HPLC samples were prepared by filtering each suspension through a 0.22-μm syringe filter without any additional dilutions

solubility at 6 h (Dulbecco's phosphate-buffered saline (PBS), aqueous buffer, thermodynamic from solid, time point 6 hours) | Solubility (time point 15 minutes) | Solubility (time point 7 days) | solubility at 15 min (Dulbecco's phosphate-buffered saline (PBS), aqueous buffer, thermodynamic from solid, time point 15 minutes) | Solubility (time point 6 hours) | SMILES
0.2 µg/mL (≈ 0.484 µM) | Below | Below | – | – | O=C1Cc2cc(CCN3CCN(c4nsc5ccccc45)CC3)c(Cl)cc2N1 [Ziprasidone Free Base, 5-[2-[4-(1,2-benzisothiazol-3-yl)-1-piperazinyl]ethyl]-6-chloro-1,3-dihydro-2H-indol-2-one]
– | – | 1.3 µg/mL | 1.5 µg/mL | 1.1 µg/mL | O=C1Cc2cc(CCN3CCN(c4nsc5ccccc45)CC3)c(Cl)cc2N1 [Ziprasidone Mesylate]
